Our source for the IC50 values is patent US9708279B2, “2-acylaminothiazoles for the treatment of cancer” (UNIVERSITA′ DEGLI STUDI DI MILANO-BICOCCA, priority 2013, dated 2017).

The structures appear in SMILES notation.

In the assay the test system is parental untransformed BaF3 cells. Put plainly: Tritiated thymidine uptake cell proliferation assay, parental BaF3. The note with it: Mus musculus, BaF3, read-out: Parental IC50. The assay is classed as cell-based. The procedure:
Tritiated Thymidine Uptake Cell Proliferation Assay
The parent untransformed BaF3 cells and ALK-negative cells are used as controls. Cells are seeded in U-bottomed 96-well plates at 10 000 cells/well in a volume of 100 μL in supplemented medium. In the case of the parent untransformed BaF3 cells, the medium is supplemented with IL-3. Serial dilutions of inhibitors are added to the appropriate wells and volumes adjusted to 200 μL. Controls were treated with the equivalent volume of vehicle, DMSO, alone. Plates are incubated at 37° C. for 72 h. ^3[H]-thymidine (1 μCiCi/well) is added for the last 8 h of incubation. Cells are harvested on to paper filters and ^3[H]-thymidine incorporation is measured using a β scintillation counter (1430 MicroBeta, Wallac, Turku, Finland). The 50% inhibitory concentration (IC50) is defined as the concentration of inhibitor, expressed in micromolar, that give a 50% decrease in ^3[H]-thymidine uptake compared with controls.
Consider `CC(C)[Si](C#Cc1cccc(-c2csc(NC(=O)c3ccc(Cn4ccnc4)cc3)n2)c1)(C(C)C)C(C)C` [Example 46, 4-((1H-imidazol-1-yl)methyl)-N-(4-(3-((triisopropylsilyl)ethynyl)phenyl)thiazol-2-yl)benzamide], for which the IC50 was 11 µM.
As for `CN1CCN(Cc2ccc(C(=O)Nc3nc(-c4ccc(C#Cc5cc(C(F)(F)F)cc(C(F)(F)F)c5)cc4)cs3)cc2)CC1` [Example 36, N-(4-(4-((3,5-bis(trifluoromethyl)phenyl)ethynyl)phenyl)thiazol-2-yl)-4-((4-methylpiperazin-1-yl)methyl)benzamide], the half-inhibitory concentration (IC50) was determined as 6.9 µM.
Next, `Cc1ccc(-c2csc(NC(=O)c3ccc(CN4CCN(C)CC4)cc3)n2)cc1C#Cc1ccccc1C(F)(F)F` [Example 7, N-(4-(4-methyl-3-((2-(trifluoromethyl)phenyl)ethynyl)phenyl)thiazol-2-yl)-4-((4-methylpiperazin-1-yl)methyl)benzamide]: 5 µM; `CN1CCN(Cc2ccc(C(=O)Nc3nc(-c4cccc(C#Cc5cc(C(F)(F)F)cc(C(F)(F)F)c5)c4)cs3)cc2)CC1` [Example 33, N-(4-(3-((3,5-bis(trifluoromethyl)phenyl)ethynyl)phenyl)thiazol-2-yl)-4-((4-methylpiperazin-1-yl)methyl)benzamide]: 7.1 µM.
Next, `CN1CCN(Cc2ccc(C(=O)Nc3nc(-c4cccc(C#CCOC(c5ccccc5)(c5ccccc5)c5ccccc5)c4)cs3)cc2)CC1` [Example 30, 4-((4-methylpiperazin-1-yl)methyl)-N-(4-(3-(3-(trityloxy)prop-1-yn-1-yl)phenyl)thiazol-2-yl)benzamide]: 10 µM; `CC(C)[Si](C#Cc1cccc(-c2csc(NC(=O)c3ccc(CN4CCN(C)CC4)cc3)n2)c1)(C(C)C)C(C)C` [Example 48, 4-((4-methylpiperazin-1-yl)methyl)-N-(4-(3-((triisopropylsilyl)ethynyl)phenyl)thiazol-2-yl)benzamide]: 13 µM; `COc1ccccc1C#Cc1cc(-c2csc(NC(=O)c3ccc(CN4CCN(C)CC4)cc3)n2)ccc1C` [Example 8, N-(4-(3-((2-methoxyphenyl)ethynyl)-4-methylphenyl)thiazol-2-yl)-4-((4-methylpiperazin-1-yl)methyl)benzamide]: 1.5 µM.
Then `C#Cc1cccc(-c2csc(NC(=O)c3ccc(CN4CCN(C)CC4)cc3)n2)c1` [Example 49, N-(4-(3-ethynylphenyl)thiazol-2-yl)-4-((4-methylpiperazin-1-yl)methyl)benzamide], with 4 µM.
Consider `Cc1ccc(C#Cc2cc(-c3csc(NC(=O)c4ccc(CN5CCN(C)CC5)cc4)n3)ccc2C)cc1` [Example 5, N-(4-(4-methyl-3-(p-tolylethynyl)phenyl)thiazol-2-yl)-4-((4-methylpiperazin-1-yl)methyl)benzamide], for which the concentration for half-maximal inhibition (IC50) came out at 5.3 µM.
Consider `COc1ccc(C#Cc2cccc(-c3csc(NC(=O)c4ccc(CN5CCN(C)CC5)cc4)n3)c2)cc1` [Example 3, N-(4-(3-((4-methoxyphenyl)ethynyl)phenyl)thiazol-2-yl)-4-((4-methylpiperazin-1-yl)methyl)benzamide], for which the IC50 stood at 2.3 µM.
Consider `CC(C)[Si](C#Cc1cccc(-c2csc(NC(=O)c3ccc(-c4ccc(C(=O)N5CCN(C)CC5)cc4)o3)n2)c1)(C(C)C)C(C)C` [Example 26, 5-(4-(4-methylpiperazine-1-carbonyl)phenyl)-N-(4-(3-((triisopropylsilyl)ethynyl)phenyl)thiazol-2-yl)furan-2-carboxamide], for which the half-maximal inhibitory concentration (IC50) is 11 µM.
Next, `C#CCN1CCN(Cc2ccc(C(=O)Nc3nc(-c4cccc(C#C[Si](C(C)C)(C(C)C)C(C)C)c4)cs3)cc2)CC1` [Example 50, 4-((4-(prop-2-yn-1-yl)piperazin-1-yl)methyl)-N-(4-(3-((triisopropylsilyl)ethynyl)phenyl)thiazol-2-yl)benzamide]: greater than 50 µM; `CN1CCN(Cc2ccc(C(=O)Nc3nc(-c4cccc(C#CCO[Si](c5ccccc5)(c5ccccc5)C(C)(C)C)c4)cs3)cc2)CC1` [Example 21, N-(4-(3-(3-((tert-butyldiphenylsilyl)oxy)prop-1-yn-1-yl)phenyl)thiazol-2-yl)-4-((4-methylpiperazin-1-yl)methyl)benzamide]: 12 µM; `Cc1ccc(C#Cc2ccc(-c3csc(NC(=O)c4ccc(CN5CCN(C)CC5)cc4)n3)cc2C)cc1` [Example 10, N-(4-(3-methyl-4-(p-tolylethynyl)phenyl)thiazol-2-yl)-4-((4-methylpiperazin-1-yl)methyl)benzamide]: 3 µM.
Regarding `Cc1cc(-c2csc(NC(=O)c3ccc(CN4CCN(C)CC4)cc3)n2)ccc1C#Cc1ccccc1C(F)(F)F` [Example 11, N-(4-(3-methyl-4-((2-(trifluoromethyl)phenyl)ethynyl)phenyl)thiazol-2-yl)-4-((4-methylpiperazin-1-yl)methyl)benzamide], the IC50 came out at 3.2 µM.
Next, `CN1CCN(Cc2ccc(C(=O)Nc3nc(-c4cccc(C#Cc5ccc(F)cc5)c4)cs3)cc2)CC1` [Example 32, N-(4-(3-((4-fluorophenyl)ethynyl)phenyl)thiazol-2-yl)-4-((4-methylpiperazin-1-yl)methyl)benzamide]: 2.4 µM; `CC(C)(C)[Si](C)(C)C#Cc1cccc(-c2csc(NC(=O)c3ccc(CN4CCOCC4)cc3)n2)c1` [Example 40, N-(4-(3-((tert-butyldimethylsilyl)ethynyl)phenyl)thiazol-2-yl)-4-(morpholinomethyl)benzamide]: 18 µM.
Then `CC[Si](C#Cc1cccc(-c2csc(NC(=O)c3ccc(CN4CCN(C)CC4)cc3)n2)c1)(CC)CC` [Example 17, 4-((4-methylpiperazin-1-yl)methyl)-N-(4-(3-((triethylsilyl)ethynyl)phenyl)thiazol-2-yl)benzamide], with 0.46 µM.
Then `CN1CCN(Cc2ccc(C(=O)Nc3nc(-c4cccc(C#Cc5ccccc5C(F)(F)F)c4)cs3)cc2)CC1` [Example 12, 4-((4-methylpiperazin-1-yl)methyl)-N-(4-(3-((2-(trifluoromethyl)phenyl)ethynyl)phenyl)thiazol-2-yl)benzamide], with 1.8 µM; and `Cc1cc(-c2csc(NC(=O)c3ccc(CN4CCN(C)CC4)cc3)n2)ccc1C#C[Si](C(C)C)(C(C)C)C(C)C` [Example 15, N-(4-(3-methyl-4-((triisopropylsilyl)ethynyl)phenyl)thiazol-2-yl)-4-((4-methylpiperazin-1-yl)methyl)benzamide], with 14 µM.
`CN1CCN(Cc2ccc(C(=O)Nc3nc(-c4cccc(C#C[Si](C)(C)C(C)(C)C)c4)cs3)cc2)CC1` [Example 24, N-(4-(3-((tert-butyldimethylsilyl)ethynyl)phenyl)thiazol-2-yl)-4-((4-methylpiperazin-1-yl)methyl)benzamide]: the half-inhibitory concentration (IC50) was 2.4 µM.
Next, `CN1CCN(Cc2ccc(C(=O)Nc3nc(-c4cccc(C#C[Si](C)(C)C)c4)cs3)cc2)CC1` [Example 18, 4-((4-methylpiperazin-1-yl)methyl)-N-(4-(3-((trimethylsilyl)ethynyl)phenyl)thiazol-2-yl)benzamide]: 0.45 µM.
Then `CCCCC#Cc1cccc(-c2csc(NC(=O)c3ccc(CN4CCN(C)CC4)cc3)n2)c1` [Example 20, N-(4-(3-(hex-1-yn-1-yl)phenyl)thiazol-2-yl)-4-((4-methylpiperazin-1-yl)methyl)benzamide], with 7.3 µM; and `CN1CCN(Cc2ccc(C(=O)Nc3nc(-c4cccc(C#Cc5ccccc5)c4)cs3)cc2)CC1` [Example 1, 4-((4-methylpiperazin-1-yl)methyl)-N-(4-(3-(phenylethynyl)phenyl)thiazol-2-yl)benzamide], with 4.7 µM; and `CC(C)OC(=O)CNCc1ccc(C(=O)Nc2nc(-c3cccc(C#C[Si](C(C)C)(C(C)C)C(C)C)c3)cs2)cc1` [Example 47, isopropyl 2-((4-((4-(3-((triisopropylsilyl)ethynyl)phenyl)thiazol-2-yl)carbamoyl)benzyl)amino)acetate], with greater than 25 µM.
`Cc1ccc(-c2csc(NC(=O)c3ccc(CN4CCN(C)CC4)cc3)n2)cc1C#Cc1ccccc1` [Example 4, N-(4-(4-methyl-3-(phenylethynyl)phenyl)thiazol-2-yl)-4-((4-methylpiperazin-1-yl)methyl)benzamide]: the concentration for half-maximal inhibition (IC50) came out at 5.3 µM.
For `CN1CCN(Cc2ccc(C(=O)Nc3nc(-c4cccc(C#Cc5ccccc5OC(F)(F)F)c4)cs3)cc2)CC1` [Example 42, 4-((4-methylpiperazin-1-yl)methyl)-N-(4-(3-((2-(trifluoromethoxy)phenyl)ethynyl)phenyl)thiazol-2-yl)benzamide], the IC50 is 2.6 µM.
Next, `CC(C)[Si](OCC#Cc1cccc(-c2csc(NC(=O)c3ccc(-c4ccc(C(=O)N5CCN(C)CC5)cc4)o3)n2)c1)(C(C)C)C(C)C` [Example 28, 5-(4-(4-methylpiperazine-1-carbonyl)phenyl)-N-(4-(3-(3-((triisopropylsilyl)oxy)prop-1-yn-1-yl)phenyl)thiazol-2-yl)furan-2-carboxamide]: 3.7 µM; `CN1CCN(C(=O)c2ccc(-c3ccc(C(=O)Nc4nc(-c5cccc(C#C[Si](C)(C)C(C)(C)C)c5)cs4)o3)cc2)CC1` [Example 27, N-(4-(3-((tert-butyldimethylsilyl)ethynyl)phenyl)thiazol-2-yl)-5-(4-(4-methylpiperazine-1-carbonyl)phenyl)furan-2-carboxamide]: 2.3 µM.
